Laboratory results published in PMC5126721 (ACS Central Science, 2016).

Biological target: lysozyme (Gallus gallus, UniProt P00698)
Test: TIMES
Type: binding

Chain of lysozyme (P00698 19-147): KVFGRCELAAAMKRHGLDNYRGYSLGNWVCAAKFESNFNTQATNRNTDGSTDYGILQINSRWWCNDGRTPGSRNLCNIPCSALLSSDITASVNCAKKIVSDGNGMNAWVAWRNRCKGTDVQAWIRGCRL

Kd: 39.8 µM
Compound: CC(=O)N[C@H]1[C@H](O[C@H]2[C@H](O)[C@@H](NC(C)=O)C(O)O[C@@H]2CO)O[C@H](CO)[C@@H](O[C@@H]2O[C@H](CO)[C@@H](O)[C@H](O)[C@H]2NC(C)=O)[C@@H]1O (stereo partly shown) [NAG3, N,N′,N″-triacetylchitotriose]
